Assay results published in US8524750B2, “(Pyrazol-3-yl)-1,3,4-thiadiazol-2-amine and (pyrazol-3-yl)-1,3,4-thiazol-2-amine compounds” (Glaxo Group Limited, priority 2009, dated 2013).
Converted amounts (≈) assume the structure as drawn. “And” between values parts separate entries of the source, which are not always exact repeats. Equal values may be shown once. Read-outs that look alike come from different tables or passages of the source.

Key:
[1] = target: T1, Mycobacterium tuberculosis InhA (Mycobacterium tuberculosis, UniProt P9WGR1); experiment: Mycobacterium tuberculosis InhA Inhibition Assay (Enzyme Assay); format: biochemical; settings: 5 nM InhA, 50 μM DDCoA, 50 μM NADH, PIPES buffer pH 6.8, initial velocities of NADH consumption
T1 construct: made in house; host or cells: E. coli
T1 sequence (P9WGR1 whole entry, looked up): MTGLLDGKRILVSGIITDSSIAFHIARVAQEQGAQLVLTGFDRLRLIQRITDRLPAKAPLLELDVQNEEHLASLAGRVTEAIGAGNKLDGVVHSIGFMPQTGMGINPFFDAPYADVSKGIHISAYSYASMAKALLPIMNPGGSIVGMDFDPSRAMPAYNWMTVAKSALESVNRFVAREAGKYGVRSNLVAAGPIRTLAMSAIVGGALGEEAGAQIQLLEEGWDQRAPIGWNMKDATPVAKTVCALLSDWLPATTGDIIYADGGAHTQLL
Experimental: Mycobacterium tuberculosis InhA Inhibition Assay (Enzyme Assay)
InhA is able to reduce 2-trans enoyl-CoA esters with concomitant oxidation of NADH to NAD^+. The assay format is based on the kinetic detection of NADH consumption.
Assay for InhA inhibition is carried out with mycobacterium recombinant protein expressed and purified form E. coli. Standard assay conditions for the determination of kinetic constants and inhibitors activity use 5 nM of InhA, 50 μM of Dodecenoyl-CoA synthesized and purified as described by Quernard et al (DDCoA) and 50 μM of NADH as substrates, and it is carried out in 30 mM PIPES buffer pH 6.8, containing 0.05% of BSA. […] Triclosan is used as positive control in every experiment. One μl of compounds is added to the wells containing 25 μl of the DDCoA+NADH mix, the reaction is started by adding 50 μl of the enzyme solution. Fluorescence from NADH is followed at room temperature during 20 minutes in a fluorescent plate reader (excitation at 340 nm; emission at 480 nm). IC50 values are determined using initial velocities of NADH consumption.
Quernard A, Sacchettini J C, Dessen A, et al. Enzymatic characterization of the target for isoniazid in Mycobacterium tuberculosis. Biochemistry 1995; 34:8235-41.

[2] = system: Mycobacterium tuberculosis H37Rv; experiment: Mycobacterium tuberculosis H37Rv Inhibition Assay (Whole Cell Assay); format: cell-based; settings: ATCC 25618 / H37Rv, H37Rv strain (ATCC25618), Middlebrook 7H9, six days at 37° C., resazurin fluorescence after 48 hours

Row | Structure (SMILES) | IC50 ([1]; read-out: IC50 value) | MIC [2] | IC50 ([1]; IC50 value)
1 | Cc1csc([C@@](C)(O)c2nnc(Nc3ccn(Cc4c(F)cccc4Cl)n3)s2)n1 (single isomer, unassigned) [Example 71] | < 111 nM | 1 to 4 µM (≈ 0.451 to 1.8 µg/mL) | –
2 | Cc1csc(C(C)(O)c2nnc(Nc3ccn(Cc4cccc(N)c4F)n3)s2)n1 (stereo not shown) [Example 88, 1-[5-({1-[(3-amino-2-fluorophenyl)methyl]-1H-pyrazol-3-yl}amino)-1,3,4-thiadiazol-2-yl]-1-(4-methyl-1,3-thiazol-2-yl)ethanol] | < 116 nM | – | –
3 | Cc1csc(C(C)(O)c2nnc(Nc3ccn(Cc4c(F)cccc4Cl)n3)s2)n1 (racemic) [Example 30, 1-[5-({1-[(2-chloro-6-fluorophenyl)methyl]-1H-pyrazol-3-yl}amino)-1,3,4-thiadiazol-2-yl]-1-(4-methyl-1,3-thiazol-2-yl)ethanol] | < 111 nM | ≤ 1 µM | –
4 | Cc1csc(C(C)(O)c2nnc(Nc3ccn(Cc4c(F)cccc4F)n3)s2)n1 (racemic) [Example 78, 1-[5-({1-[(2,6-difluorophenyl)methyl]-1H-pyrazol-3-yl}amino)-1,3,4-thiadiazol-2-yl]-1-(4-methyl-1,3-thiazol-2-yl)ethanol] | – | ≤ 1 µM | < 115 nM
5 | Cc1ccn(C(C)c2nnc(Nc3ccn(Cc4c(F)cccc4F)n3)s2)n1 (stereo not shown) [Example 76, N-{1-[(2,6-difluorophenyl)methyl]-1H-pyrazol-3-yl}-5-[1-(3-methyl-1H-pyrazol-1-yl)ethyl]-1,3,4-thiadiazol-2-amine] | – | ≤ 1 µM | < 125 nM
6 | O=[N+]([O-])c1ccn(Cc2nnc(Nc3ccn(Cc4ccccc4Cl)n3)s2)n1 [Example 49, N-{1-[(2-chlorophenyl)methyl]-1H-pyrazol-3-yl}-5-[(3-nitro-1H-pyrazol-1-yl)methyl]-1,3,4-thiadiazol-2-amine] | < 120 nM | > 10 µM | –
7 | Cc1cc(C)n(C(C)c2nnc(Nc3ccn(Cc4ccccc4Br)n3)s2)n1 (stereo not shown) [Example 3, N-{1-[(2-bromophenyl)methyl]-1H-pyrazol-3-yl}-5-[1-(3,5-dimethyl-1H-pyrazol-1-yl)ethyl]-1,3,4-thiadiazol-2-amine] | < 109 nM | 1 to 4 µM (≈ 0.458 to 1.83 µg/mL) | –
8 | Cc1cc(C)n(C(C)c2nnc(Nc3ccn(Cc4cc(C(F)(F)F)ccc4C(F)(F)F)n3)s2)n1 (stereo not shown) [Example 8, N-(1-{[2,5-bis(trifluoromethyl)phenyl]methyl}-1H-pyrazol-3-yl)-5-[1-(3,5-dimethyl-1H-pyrazol-1-yl)ethyl]-1,3,4-thiadiazol-2-amine] | < 97 nM | > 10 µM | –
9 | FC(F)(F)c1ccn(Cc2nnc(Nc3ccn(Cc4ccccc4)n3)s2)n1 [Example 61, N-[1-(phenylmethyl)-1H-pyrazol-3-yl]-5-{[3-(trifluoromethyl)-1H-pyrazol-1-yl]methyl}-1,3,4-thiadiazol-2-amine] | 247 to 1230 nM | > 10 µM | –
10 | Cc1cc(C)n(C(C)c2nnc(Nc3ccn(Cc4ccc(F)cc4Cl)n3)s2)n1 (stereo not shown) [Example 17, N-{1-[(2-chloro-4-fluorophenyl)methyl]-1H-pyrazol-3-yl}-5-[1-(3,5-dimethyl-1H-pyrazol-1-yl)ethyl]-1,3,4-thiadiazol-2-amine] | – | > 10 µM | 116 to 232 nM
11 | Cc1ccn(C(C)c2nnc(Nc3ccn(Cc4cccc(Cl)c4F)n3)s2)n1 (stereo not shown) [Example 14, N-{1-[(3-chloro-2-fluorophenyl)methyl]-1H-pyrazol-3-yl}-5-[1-(3-methyl-1H-pyrazol-1-yl)ethyl]-1,3,4-thiadiazol-2-amine] | < 120 nM | 1 to 4 µM (≈ 0.418 to 1.67 µg/mL) | –
12 | Cc1cc(C)n(C(C)c2nnc(Nc3ccn(Cc4c(F)ccc(F)c4F)n3)s2)n1 (stereo not shown) [Example 77, 5-[1-(3,5-dimethyl-1H-pyrazol-1-yl)ethyl]-N-{1-[(2,3,6-trifluorophenyl)methyl]-1H-pyrazol-3-yl}-1,3,4-thiadiazol-2-amine] | – | ≤ 1 µM | < 115 nM
13 | Cc1cc(C)n(C(C)c2nnc(Nc3ccn(Cc4ccccc4F)n3)s2)n1 (stereo not shown) [Example 6, 5-[1-(3,5-dimethyl-1H-pyrazol-1-yl)ethyl]-N-{1-[(2-fluorophenyl)methyl]-1H-pyrazol-3-yl}-1,3,4-thiadiazol-2-amine] | < 126 nM | 1 to 4 µM (≈ 0.397 to 1.59 µg/mL) | –
14 | Cc1ccn(C(C)c2nnc(Nc3ccn(Cc4ccccc4)n3)s2)n1 (stereo not shown) [Example 44, 5-[1-(3-methyl-1H-pyrazol-1-yl)ethyl]-N-[1-(phenylmethyl)-1H-pyrazol-3-yl]-1,3,4-thiadiazol-2-amine] | – | 1 to 4 µM (≈ 0.365 to 1.46 µg/mL) | 137 to 274 nM
15 | FC(F)(F)c1ccn(Cc2nnc(Nc3ccn(Cc4ccccc4Cl)n3)s2)n1 [Example 59, N-{1-[(2-chlorophenyl)methyl]-1H-pyrazol-3-yl}-5-{[3-(trifluoromethyl)-1H-pyrazol-1-yl]methyl}-1,3,4-thiadiazol-2-amine] | 227 to 1140 nM | > 10 µM | –
16 | Cc1csc(C(C)c2nnc(Nc3ccn(Cc4c(F)cccc4Cl)n3)s2)n1 (stereo not shown) [Example 29, N-{1-[(2-chloro-6-fluorophenyl)methyl]-1H-pyrazol-3-yl}-5-[1-(4-methyl-1,3-thiazol-2-yl)ethyl]-1,3,4-thiadiazol-2-amine] | < 115 nM | 1 to 4 µM (≈ 0.435 to 1.74 µg/mL) | –
17 | Cc1cc(C)n(C(C)c2nnc(Nc3ccn(Cc4c(F)ccc(C)c4Cl)n3)s2)n1 (stereo not shown) [Example 23, N-{1-[(2-chloro-6-fluoro-3-methylphenyl)methyl]-1H-pyrazol-3-yl}-5-[1-(3,5-dimethyl-1H-pyrazol-1-yl)ethyl]-1,3,4-thiadiazol-2-amine] | < 112 nM | ≤ 1 µM | –
18 | Cc1csc(C(C)(O)c2nnc(Nc3ccn(Cc4c(F)ccc(C)c4F)n3)s2)n1 (stereo not shown) [Example 84, 1-[5-({1-[(2,6-difluoro-3-methylphenyl)methyl]-1H-pyrazol-3-yl}amino)-1,3,4-thiadiazol-2-yl]-1-(4-methyl-1,3-thiazol-2-yl)ethanol] | – | ≤ 1 µM | < 111 nM
19 | O=[N+]([O-])c1ccn(Cc2nnc(Nc3ccn(Cc4c(Cl)cccc4Cl)n3)s2)n1 [Example 47, N-{1-[(2,6-dichlorophenyl)methyl]-1H-pyrazol-3-yl}-5-[(3-nitro-1H-pyrazol-1-yl)methyl]-1,3,4-thiadiazol-2-amine] | – | > 10 µM | < 111 nM
20 | Cc1cc(C)n(Cc2nnc(Nc3ccn(Cc4c(Cl)cccc4Cl)n3)s2)n1 [Example 53, N-{1-[(2,6-dichlorophenyl)methyl]-1H-pyrazol-3-yl}-5-[(3,5-dimethyl-1H-pyrazol-1-yl)methyl]-1,3,4-thiadiazol-2-amine] | < 115 nM | > 10 µM | –
21 | Cc1cc(C(F)(F)F)nn1Cc1nnc(Nc2ccn(Cc3ccccc3Cl)n2)s1 [Example 48, N-{1-[(2-chlorophenyl)methyl]-1H-pyrazol-3-yl}-5-{[5-methyl-3-(trifluoromethyl)-1H-pyrazol-1-yl]methyl}-1,3,4-thiadiazol-2-amine] | – | > 10 µM | 110 to 220 nM
22 | Cc1cc(C)n([C@H](C)c2nnc(Nc3ccn(Cc4c(F)cccc4Cl)n3)s2)n1 (single isomer, unassigned) [Example 68] | < 116 nM | > 10 µM | –
23 | Fc1cccc(Cl)c1Cn1ccc(Nc2nnc(Cn3ccc(C(F)(F)F)n3)s2)n1 [Example 63, N-{1-[(2-chloro-6-fluorophenyl)methyl]-1H-pyrazol-3-yl}-5-{[3-(trifluoromethyl)-1H-pyrazol-1-yl]methyl}-1,3,4-thiadiazol-2-amine] | 218 to 1090 nM | > 10 µM | –
24 | Cc1cc(C)n(Cc2cnc(Nc3ccn(Cc4c(F)cccc4Cl)n3)s2)n1 [Example 37, N-{1-[(2-chloro-6-fluorophenyl)methyl]-1H-pyrazol-3-yl}-5-[(3,5-dimethyl-1H-pyrazol-1-yl)methyl]-1,3-thiazol-2-amine] | < 120 nM | 4 to 10 µM (≈ 1.67 to 4.17 µg/mL) | –
25 | Cc1cc(C)n(C(C)c2nnc(Nc3ccn(Cc4c(F)ccc(C)c4F)n3)s2)n1 (stereo not shown) [Example 81, N-{1-[(2,6-difluoro-3-methylphenyl)methyl]-1H-pyrazol-3-yl}-5-[1-(3,5-dimethyl-1H-pyrazol-1-yl)ethyl]-1,3,4-thiadiazol-2-amine] | – | ≤ 1 µM | < 116 nM
26 | Cc1ccn(C(C)c2nnc(Nc3ccn(Cc4c(F)ccc(C)c4F)n3)s2)n1 (stereo not shown) [Example 86, N-{1-[(2,6-difluoro-3-methylphenyl)methyl]-1H-pyrazol-3-yl}-5-[1-(3-methyl-1H-pyrazol-1-yl)ethyl]-1,3,4-thiadiazol-2-amine] | – | ≤ 1 µM | < 120 nM
27 | Cc1ccn([C@@H](C)c2nnc(Nc3ccn(Cc4c(F)cccc4Cl)n3)s2)n1 (single isomer, unassigned) [Example 67] | < 120 nM | 1 to 4 µM (≈ 0.418 to 1.67 µg/mL) | –
28 | Cc1cc([N+](=O)[O-])nn1Cc1nnc(Nc2ccn(Cc3c(Cl)cccc3Cl)n2)s1 [Example 65, N-{1-[(2,6-dichlorophenyl)methyl]-1H-pyrazol-3-yl}-5-[1-(5-methyl-3-nitro-1H-pyrazol-1-yl)methyl]-1,3,4-thiadiazol-2-amine] | > 1070 nM | – | –
29 | Cc1csc([C@](C)(O)c2nnc(Nc3ccn(Cc4c(F)cccc4F)n3)s2)n1 (single isomer, unassigned) [Example 89] | – | – | 4.6 nM and < 115 nM
